Among the test systems are SNB-19 CNS; HT29 colon; OVCAR-5 ovarian; IGROV1 ovarian; SK-MEL-5 melanoma; ACHN renal; NCI/ADR-RES ovarian; A549 NSCLC; CAKI-1 renal; PC-3 prostate; HL-60(TB) leukemia; HCT-15 colon; UO-31 renal; UACC-62 melanoma; EKVX NSCLC; NCI-H23 lung; HOP-92 NSCLC; KM12 colon; NCI-H460 lung.
Common to all, as to test: DTP human tumour cell line panel, 48 h

Data on 7 compounds can be found in PubChem BioAssay (NCI).

SMILES strings stand for the structures.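 How tested: cells in 96-well plates exposed to compound for 48 hours at five concentrations. At the TGI there is no net growth.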

Turning to `N=c1oc2ccc(Cl)cc2cc1C(=O)NCc1ccccc1`, the TGI in the assay with SNB-19 CNS, in the assay on HT29 colon, with OVCAR-5 ovarian, in the assay with IGROV1 ovarian, in the assay with SK-MEL-5 melanoma and in the assay with ACHN renal was over 100 µM in each case. Moreover, the TGI (usually the concentration giving total growth inhibition) is over 100 µM in the assay with NCI/ADR-RES ovarian; over 100 µM in the assay on A549 NSCLC; over 100 µM in the assay on CAKI-1 renal; over 100 µM with PC-3 prostate; 36.8 µM in the assay with HL-60(TB) leukemia; over 100 µM with HCT-15 colon. The TGI in the assay with UO-31 renal, in the assay on UACC-62 melanoma, with EKVX NSCLC, in the assay with NCI-H23 lung, in the assay on HOP-92 NSCLC and in the assay on KM12 colon was over 100 µM in each case. The compound further had a TGI in the assay on NCI-H460 lung of over 100 µM.
Turning to `O=C(/C=C\Nc1ccccc1O)C(Cl)(Cl)Cl`, the TGI in the assay on SNB-19 CNS, with HT29 colon, in the assay with OVCAR-5 ovarian, with IGROV1 ovarian, with SK-MEL-5 melanoma and with ACHN renal was over 100 µM throughout. The concentration for total growth inhibition (TGI) in the assay with NCI/ADR-RES ovarian, in the assay with A549 NSCLC, in the assay with CAKI-1 renal, in the assay with PC-3 prostate, in the assay with HL-60(TB) leukemia and in the assay with HCT-15 colon was over 100 µM throughout. Besides, the total growth inhibition concentration (TGI) in the assay on UO-31 renal was 76.5 µM; in the assay with UACC-62 melanoma, over 100 µM; in the assay on EKVX NSCLC it was over 100 µM; in the assay with NCI-H23 lung, over 100 µM; in the assay on HOP-92 NSCLC it was over 100 µM; in the assay on KM12 colon, over 100 µM. The TGI in the assay on NCI-H460 lung was over 100 µM.
In the case of `O=C(N/N=C\c1ccc([N+](=O)[O-])cc1)c1ccccc1Nc1ccccc1C(=O)N/N=C/c1ccc([N+](=O)[O-])cc1`, the TGI in the assay on SNB-19 CNS, in the assay with HT29 colon, with OVCAR-5 ovarian, in the assay on IGROV1 ovarian, with SK-MEL-5 melanoma and in the assay on ACHN renal was over 100 µM each time. In addition, the total growth inhibition concentration (TGI) in the assay on NCI/ADR-RES ovarian, with A549 NSCLC, in the assay with CAKI-1 renal, in the assay on PC-3 prostate, in the assay with HL-60(TB) leukemia and in the assay on HCT-15 colon was over 100 µM throughout. Further, the TGI with UO-31 renal, in the assay with UACC-62 melanoma, in the assay with EKVX NSCLC, in the assay on NCI-H23 lung, in the assay on HOP-92 NSCLC and with KM12 colon was over 100 µM each time. The same compound came in with a total growth inhibition concentration (TGI) in the assay with NCI-H460 lung of over 100 µM.
Regarding `CCN(CC)CCSc1nc2c(c(=N)n1-c1ccccc1)c(=S)n(-c1ccccc1)c(=S)n2-c1ccccc1`, the TGI turned out to be 40.6 µM in the assay with SNB-19 CNS; 3.37 µM with HT29 colon; 29 µM in the assay on OVCAR-5 ovarian; 3.24 µM in the assay with IGROV1 ovarian; 11.4 µM in the assay on SK-MEL-5 melanoma; 3.16 µM with ACHN renal. Also, the total growth inhibition concentration (TGI) was determined as 52.5 µM in the assay with NCI/ADR-RES ovarian; 4.77 µM in the assay with A549 NSCLC; 2.94 µM in the assay with CAKI-1 renal; 3.32 µM with PC-3 prostate; 1.29 µM in the assay with HL-60(TB) leukemia; 4.35 µM in the assay on HCT-15 colon. The TGI is 3.16 µM in the assay with UACC-62 melanoma; 7.31 µM in the assay with EKVX NSCLC; 10.8 µM with NCI-H23 lung; 2.88 µM with HOP-92 NSCLC; 12.8 µM with KM12 colon; 3.86 µM in the assay on NCI-H460 lung.
With `NC12CC3CC4C1CC1CC2C(C3)C4(N)C1`, the TGI with SNB-19 CNS, in the assay with HT29 colon, with OVCAR-5 ovarian, in the assay with IGROV1 ovarian, in the assay with SK-MEL-5 melanoma and in the assay on ACHN renal was over 100 µM throughout. Further, the TGI in the assay with NCI/ADR-RES ovarian, in the assay with A549 NSCLC, with CAKI-1 renal, in the assay with PC-3 prostate, in the assay with HL-60(TB) leukemia and in the assay with HCT-15 colon was over 100 µM in each case. Moreover, the TGI in the assay on UO-31 renal, in the assay on UACC-62 melanoma, in the assay on EKVX NSCLC, in the assay with NCI-H23 lung, in the assay on HOP-92 NSCLC and in the assay on KM12 colon was over 100 µM in each case. The concentration for total growth inhibition (TGI) in the assay on NCI-H460 lung was over 100 µM.
As to `CC(=O)NNC(=S)/N=C/c1c(O)cc(C)oc1=O`, the total growth inhibition concentration (TGI) with SNB-19 CNS, in the assay on HT29 colon, in the assay with OVCAR-5 ovarian, in the assay with IGROV1 ovarian, with SK-MEL-5 melanoma and with ACHN renal was over 100 µM throughout. The total growth inhibition concentration (TGI) in the assay on NCI/ADR-RES ovarian, in the assay on A549 NSCLC, in the assay with CAKI-1 renal, with PC-3 prostate, with HL-60(TB) leukemia and with HCT-15 colon was over 100 µM each time. In addition, the TGI with UO-31 renal, with EKVX NSCLC, with NCI-H23 lung, in the assay on HOP-92 NSCLC, with KM12 colon and in the assay on NCI-H460 lung was over 100 µM each time.
Take `Cc1cc(O)c(/C=N/c2nc(-c3cccc([N+](=O)[O-])c3)cs2)c(=O)o1`: the TGI in the assay with SNB-19 CNS, in the assay with HT29 colon, in the assay with OVCAR-5 ovarian, in the assay with IGROV1 ovarian, in the assay on SK-MEL-5 melanoma and in the assay with ACHN renal was over 100 µM each time. Also, the TGI in the assay with NCI/ADR-RES ovarian was over 100 µM; in the assay on A549 NSCLC it was over 100 µM; with CAKI-1 renal it was over 100 µM; in the assay on PC-3 prostate it was over 100 µM; in the assay on HL-60(TB) leukemia, 47.2 µM; in the assay on HCT-15 colon, over 100 µM. Further, the TGI in the assay on UO-31 renal, with UACC-62 melanoma, in the assay with EKVX NSCLC, in the assay with NCI-H23 lung, with HOP-92 NSCLC and in the assay with KM12 colon was over 100 µM each time. Further, the TGI in the assay with NCI-H460 lung is over 100 µM.
